Data set [1] is described as follows: Cytotoxicity in parallel to antiviral assay. The settings on record: African green monkey.
In data set [2] the test system is HSV-1 GHSV-UL46. Put plainly: microbe, parasite or virus in culture. The settings on record: Human alphaherpesvirus 1, Vero C1008, read-out: EC50 for Virus. Type of data set: cell-based, herpes simplex virus type 1.
The test system of data set [3] is Influenza virus A/Mal/302/54 (H1N1). The experiment in a line: microbe, parasite or virus in culture. Type of data set: cell-based. To be noted: H1N1, MDCK, read-out: EC50 (mean ± SD).
In data set [4] the test system is Influenza virus A/PR/8/34 (H1N1). The experiment in a line: microbe, parasite or virus in culture. Type of data set: cell-based. To be noted: H1N1|PR/8, MDCK, read-out: EC50 (mean ± SD).
Data set [5] concerns Influenza virus A/WS/33 (H1N1). Put plainly: microbe, parasite or virus in culture. To be noted: H1N1, MDCK, read-out: EC50 (mean ± SD). Type of data set: cell-based.
The test system of data set [6] is influenza A virus WSN/33 (H1N1). Also on record: species or system BALB/c mice. The settings on record: mouse, in vivo.
Data set [7] concerns A/Guangzhou/39715/2014 (H5N6). The experiment in a line: microbe, parasite or virus in culture. Type of data set: cell-based, avian influenza virus. To be noted: unidentified influenza virus, H5N6, MDCK, read-out: IC50 (mean ± SD).
For data set [8], the system named is Influenza virus B/Lee/40. The experiment in a line: microbe, parasite or virus in culture. To be noted: MDCK, read-out: EC50 (mean ± SD). Type of data set: cell-based.
Data set [9] relates to Influenza virus A/WSN/33 (H1N1). The experiment in a line: microbe, parasite or virus in culture. It is filed as cell-based. To be noted: MDCK, read-out: EC50 (mean ± SD).
The subject of data set [10] is influenza A virus/California/07/2009 (H1N1). Also noted: species or system ferrets. To be noted: in vivo, po, 25 mg/kg/day.
In data set [11] the test system is Influenza virus A/Weiss/43(H1N1). The experiment in a line: microbe, parasite or virus in culture. To be noted: H1N1, MDCK, read-out: EC50 (mean ± SD). It is filed as cell-based.
The nature of data set [12]: Cytotoxicity in MDCK cells without viral infection. To be noted: dog.
The subject of data set [13] is MDCK cells. Put plainly: Cytotoxicity in MDCK cells without viral infection. To be noted: MDCK, 37 °C.
Data set [14] has as its system A/PR/8/34 (H1N1). Also on record: species or system BALB/c mice. The settings on record: mouse, in vivo.
For data set [15], the system named is influenza A virus WSN/33 (H1N1). Also noted: species or system BALB/c mice. To be noted: mouse, in vivo. This is another data set of the same source.
The subject of data set [16] is A/Qingyuan/GIRD01/2017 (H7N9). Put plainly: microbe, parasite or virus in culture. Type of data set: cell-based, avian influenza virus. The settings on record: Influenza A virus, H7N9, MDCK, read-out: IC50 (mean ± SD).
Data set [17] relates to A/Anhui/01/2013 (H7N9). Put plainly: microbe, parasite or virus in culture. The settings on record: Influenza A virus, H7N9, MDCK, read-out: IC50 (mean ± SD). It is filed as cell-based, avian influenza virus.
Data set [18] can be described thus: in vitro. The settings on record: human.
The subject of data set [19] is HBV. Put plainly: microbe, parasite or virus in culture. It is filed as cell-based. The settings on record: Hepatitis B virus, HepG2.2.15, read-out: EC50 for Virus.
Data set [20] has as its system HRV 1B. Put plainly: microbe, parasite or virus in culture. Type of data set: cell-based. The settings on record: Human rhinovirus sp., H1-HeLa, read-out: EC50 for Virus.
Data set [21] in a line: Cytotoxicity in parallel to antiviral assay. The settings on record: human.
The test system of data set [22] is EV71 Shenzhen/120F1/09. Put plainly: microbe, parasite or virus in culture. It is filed as cell-based, human enterovirus 71. The settings on record: Enterovirus A, EV71, RD, read-out: EC50 for Virus.
Data set [23] can be described thus: Cytotoxicity in parallel to antiviral assay. To be noted: human. The source holds these as a separate data set.
The target of data set [24] is SRC (Homo sapiens, UniProt P12931). Put plainly: biochemical.
The target of data set [25] is MAP4K4 (Homo sapiens, UniProt O95819). Put plainly: biochemical.
MAP4K4, sequence (O95819 whole entry): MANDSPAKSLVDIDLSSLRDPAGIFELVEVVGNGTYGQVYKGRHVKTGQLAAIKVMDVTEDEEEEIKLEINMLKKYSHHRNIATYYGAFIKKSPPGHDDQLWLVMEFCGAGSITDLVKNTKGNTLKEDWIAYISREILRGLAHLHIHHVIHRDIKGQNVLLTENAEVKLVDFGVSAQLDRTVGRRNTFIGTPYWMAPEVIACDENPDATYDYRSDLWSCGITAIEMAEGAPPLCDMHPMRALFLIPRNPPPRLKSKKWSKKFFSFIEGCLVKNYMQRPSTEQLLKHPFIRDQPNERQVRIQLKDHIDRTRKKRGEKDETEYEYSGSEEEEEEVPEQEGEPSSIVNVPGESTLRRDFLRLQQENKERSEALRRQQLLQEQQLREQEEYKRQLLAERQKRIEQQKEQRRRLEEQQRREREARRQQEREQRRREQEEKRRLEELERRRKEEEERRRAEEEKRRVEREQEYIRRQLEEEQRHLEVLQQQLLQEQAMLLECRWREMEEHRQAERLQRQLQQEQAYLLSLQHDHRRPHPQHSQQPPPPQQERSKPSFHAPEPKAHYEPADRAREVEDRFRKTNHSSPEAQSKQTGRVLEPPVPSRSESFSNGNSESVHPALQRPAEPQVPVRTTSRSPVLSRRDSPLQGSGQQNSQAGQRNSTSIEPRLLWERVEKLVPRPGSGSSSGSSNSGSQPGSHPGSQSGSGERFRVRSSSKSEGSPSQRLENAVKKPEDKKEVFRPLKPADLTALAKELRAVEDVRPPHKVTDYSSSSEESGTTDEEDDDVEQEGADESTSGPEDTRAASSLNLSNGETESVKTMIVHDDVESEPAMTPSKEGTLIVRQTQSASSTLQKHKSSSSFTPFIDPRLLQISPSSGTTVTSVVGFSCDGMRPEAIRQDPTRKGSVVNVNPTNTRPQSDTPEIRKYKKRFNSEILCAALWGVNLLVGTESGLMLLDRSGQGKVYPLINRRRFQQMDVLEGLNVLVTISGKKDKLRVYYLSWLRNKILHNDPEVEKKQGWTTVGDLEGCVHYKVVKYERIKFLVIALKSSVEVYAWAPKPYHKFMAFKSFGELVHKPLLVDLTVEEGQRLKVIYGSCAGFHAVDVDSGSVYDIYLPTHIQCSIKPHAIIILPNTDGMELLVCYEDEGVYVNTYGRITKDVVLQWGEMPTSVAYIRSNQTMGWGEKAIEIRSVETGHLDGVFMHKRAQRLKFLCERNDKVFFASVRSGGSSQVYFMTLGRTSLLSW
A short description of data set [26]: in vitro. To be noted: dog, CC50 (mean ± SD).
Data set [27] has as its target TAOK2 (Homo sapiens, UniProt Q9UL54). Put plainly: biochemical.
Data set [28] deals with influenza A virus WSN/33 (H1N1). Also noted: species or system BALB/c mice. The settings on record: mouse, in vivo. This is another data set of the same source.
Data set [29] deals with TNIK (Homo sapiens, UniProt Q9UKE5). The experiment in a line: biochemical.
Data set [30] addresses CDK2 (Homo sapiens, UniProt P24941). The experiment in a line: biochemical.
The target of data set [31] is MST4 (Homo sapiens, UniProt Q9P289). The experiment in a line: biochemical.
The target in data set [32] is MINK (Homo sapiens, UniProt Q8N4C8). Put plainly: biochemical.
Data set [33] addresses JNK1 (Homo sapiens, UniProt P45983). The experiment in a line: biochemical.
Data set [34] deals with PKA (Homo sapiens, UniProt P17612). Put plainly: biochemical.
Data set [35] addresses ABL1 (Homo sapiens, UniProt P00519). The experiment in a line: biochemical.
The subject of data set [36] is Influenza virus A/California/2/2014 (H3N2). The experiment in a line: microbe, parasite or virus in culture. To be noted: H3N2, MDCK, read-out: EC50 (mean ± SD). It is filed as cell-based.
The target in data set [37] is MAPKAPK2 (Homo sapiens, UniProt P49137). Put plainly: biochemical.
Data set [38] addresses FGFR1 (Homo sapiens, UniProt P11362). The experiment in a line: biochemical.
In data set [39] the target is DYRK3 (Homo sapiens, UniProt O43781). Put plainly: biochemical.
DYRK3, sequence (O43781 whole entry): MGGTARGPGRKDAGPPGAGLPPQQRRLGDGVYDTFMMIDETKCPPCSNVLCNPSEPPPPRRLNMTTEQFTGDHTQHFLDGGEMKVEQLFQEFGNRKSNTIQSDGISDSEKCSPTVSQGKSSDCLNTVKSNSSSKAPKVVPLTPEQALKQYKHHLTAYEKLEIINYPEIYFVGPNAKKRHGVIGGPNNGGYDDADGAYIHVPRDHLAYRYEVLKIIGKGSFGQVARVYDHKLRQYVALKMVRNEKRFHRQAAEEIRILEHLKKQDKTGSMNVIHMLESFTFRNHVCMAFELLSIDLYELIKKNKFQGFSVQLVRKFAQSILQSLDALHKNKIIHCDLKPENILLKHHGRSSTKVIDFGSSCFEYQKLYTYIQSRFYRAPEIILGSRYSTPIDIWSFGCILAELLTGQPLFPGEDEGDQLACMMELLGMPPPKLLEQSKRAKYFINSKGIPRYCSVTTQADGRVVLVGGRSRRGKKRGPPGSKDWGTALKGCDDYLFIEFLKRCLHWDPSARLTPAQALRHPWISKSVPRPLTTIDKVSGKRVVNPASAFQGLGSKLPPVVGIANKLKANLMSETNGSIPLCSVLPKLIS
The subject of data set [40] is Influenza virus A/California/07/2009 (H1N1)pdm09. The experiment in a line: microbe, parasite or virus in culture. The settings on record: H1N1, MDCK, read-out: EC50 (mean ± SD). It is filed as cell-based.
In data set [41] the target is CK1 alpha (Homo sapiens, UniProt P48729). The experiment in a line: biochemical.
The target in data set [42] is CHK1 (Homo sapiens, UniProt O14757). Put plainly: biochemical.
Data set [43] addresses KDR (Homo sapiens, UniProt P35968). The experiment in a line: biochemical.
The target of data set [44] is p38 alpha (Homo sapiens, UniProt Q16539). The experiment in a line: biochemical.
p38 alpha, sequence (Q16539 whole entry): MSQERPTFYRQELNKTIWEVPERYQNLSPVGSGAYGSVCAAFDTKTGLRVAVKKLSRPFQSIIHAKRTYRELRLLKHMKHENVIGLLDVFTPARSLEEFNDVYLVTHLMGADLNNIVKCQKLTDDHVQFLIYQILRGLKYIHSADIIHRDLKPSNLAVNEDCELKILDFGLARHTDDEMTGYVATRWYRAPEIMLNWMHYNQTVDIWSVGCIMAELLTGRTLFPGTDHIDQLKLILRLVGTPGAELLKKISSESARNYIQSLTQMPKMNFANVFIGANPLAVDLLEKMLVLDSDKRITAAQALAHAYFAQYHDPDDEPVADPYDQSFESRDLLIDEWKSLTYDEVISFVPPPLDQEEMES
Data set [45] concerns the target JAK2 (Homo sapiens, UniProt O60674). The experiment in a line: biochemical.
Data set [46] has as its target Aurora A (Homo sapiens, UniProt O14965). Put plainly: biochemical.
Data set [47] has as its target LCK (Homo sapiens, UniProt P06239). The experiment in a line: biochemical.
For data set [48], the target named is influenza virus polymerase (PB1, PB2, NP, PA from A/California/04/2009 (H1N1) pdm09) (Influenza A virus, UniProt C3W5R8+C3W5R9). Type of data set: cell-based.
In data set [49] the target is CAMK2 alpha (Homo sapiens, UniProt Q9UQM7). Put plainly: biochemical.
Data set [50] deals with PDK1 (Homo sapiens, UniProt O15530). The experiment in a line: biochemical.
Data set [51] has as its target EPHA2 (Homo sapiens, UniProt P29317). Put plainly: biochemical.
In data set [52] the target is GSK3 beta (Homo sapiens, UniProt P49841). Put plainly: biochemical.
Data set [53] relates to Influenza virus A/Hong Kong/8/68 (H3N2). Put plainly: microbe, parasite or virus in culture. It is filed as cell-based. The settings on record: unidentified influenza virus, H3N2, MDCK, read-out: EC50 (mean ± SD).

Like-named read-outs stand apart in the source and are kept apart here.

TAOK2, sequence (Q9UL54 whole entry): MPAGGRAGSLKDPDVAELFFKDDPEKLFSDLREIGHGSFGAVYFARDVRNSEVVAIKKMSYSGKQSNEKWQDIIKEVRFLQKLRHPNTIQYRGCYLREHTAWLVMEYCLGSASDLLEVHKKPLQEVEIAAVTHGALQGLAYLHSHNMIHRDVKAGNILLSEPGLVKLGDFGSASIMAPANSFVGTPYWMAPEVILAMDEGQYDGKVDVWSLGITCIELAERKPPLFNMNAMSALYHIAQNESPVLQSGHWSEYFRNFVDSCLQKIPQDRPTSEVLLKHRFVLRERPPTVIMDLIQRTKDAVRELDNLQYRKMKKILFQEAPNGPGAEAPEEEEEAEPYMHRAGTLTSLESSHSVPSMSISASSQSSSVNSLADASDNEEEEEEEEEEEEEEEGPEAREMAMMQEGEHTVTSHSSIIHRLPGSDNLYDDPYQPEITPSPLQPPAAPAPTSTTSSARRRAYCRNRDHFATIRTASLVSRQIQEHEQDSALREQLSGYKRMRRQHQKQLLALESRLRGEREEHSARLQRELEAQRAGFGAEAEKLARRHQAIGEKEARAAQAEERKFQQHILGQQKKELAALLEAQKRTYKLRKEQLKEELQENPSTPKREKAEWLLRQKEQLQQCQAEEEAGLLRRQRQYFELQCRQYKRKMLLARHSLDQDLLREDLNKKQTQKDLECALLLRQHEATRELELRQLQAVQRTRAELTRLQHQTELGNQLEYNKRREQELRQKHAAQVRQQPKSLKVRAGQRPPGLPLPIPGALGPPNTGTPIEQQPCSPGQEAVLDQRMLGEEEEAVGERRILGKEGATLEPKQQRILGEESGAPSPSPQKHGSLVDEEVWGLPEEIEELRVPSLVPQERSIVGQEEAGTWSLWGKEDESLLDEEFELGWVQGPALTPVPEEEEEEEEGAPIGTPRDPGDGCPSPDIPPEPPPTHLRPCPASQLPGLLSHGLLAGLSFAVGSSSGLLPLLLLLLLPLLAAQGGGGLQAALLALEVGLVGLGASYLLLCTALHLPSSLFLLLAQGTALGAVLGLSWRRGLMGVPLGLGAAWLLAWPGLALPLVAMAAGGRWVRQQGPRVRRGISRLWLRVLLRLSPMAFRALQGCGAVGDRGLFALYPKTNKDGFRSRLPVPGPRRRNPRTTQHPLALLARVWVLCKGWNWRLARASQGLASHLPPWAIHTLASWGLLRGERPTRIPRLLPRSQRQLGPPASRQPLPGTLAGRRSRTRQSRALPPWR
EPHA2, sequence (P29317 24-976): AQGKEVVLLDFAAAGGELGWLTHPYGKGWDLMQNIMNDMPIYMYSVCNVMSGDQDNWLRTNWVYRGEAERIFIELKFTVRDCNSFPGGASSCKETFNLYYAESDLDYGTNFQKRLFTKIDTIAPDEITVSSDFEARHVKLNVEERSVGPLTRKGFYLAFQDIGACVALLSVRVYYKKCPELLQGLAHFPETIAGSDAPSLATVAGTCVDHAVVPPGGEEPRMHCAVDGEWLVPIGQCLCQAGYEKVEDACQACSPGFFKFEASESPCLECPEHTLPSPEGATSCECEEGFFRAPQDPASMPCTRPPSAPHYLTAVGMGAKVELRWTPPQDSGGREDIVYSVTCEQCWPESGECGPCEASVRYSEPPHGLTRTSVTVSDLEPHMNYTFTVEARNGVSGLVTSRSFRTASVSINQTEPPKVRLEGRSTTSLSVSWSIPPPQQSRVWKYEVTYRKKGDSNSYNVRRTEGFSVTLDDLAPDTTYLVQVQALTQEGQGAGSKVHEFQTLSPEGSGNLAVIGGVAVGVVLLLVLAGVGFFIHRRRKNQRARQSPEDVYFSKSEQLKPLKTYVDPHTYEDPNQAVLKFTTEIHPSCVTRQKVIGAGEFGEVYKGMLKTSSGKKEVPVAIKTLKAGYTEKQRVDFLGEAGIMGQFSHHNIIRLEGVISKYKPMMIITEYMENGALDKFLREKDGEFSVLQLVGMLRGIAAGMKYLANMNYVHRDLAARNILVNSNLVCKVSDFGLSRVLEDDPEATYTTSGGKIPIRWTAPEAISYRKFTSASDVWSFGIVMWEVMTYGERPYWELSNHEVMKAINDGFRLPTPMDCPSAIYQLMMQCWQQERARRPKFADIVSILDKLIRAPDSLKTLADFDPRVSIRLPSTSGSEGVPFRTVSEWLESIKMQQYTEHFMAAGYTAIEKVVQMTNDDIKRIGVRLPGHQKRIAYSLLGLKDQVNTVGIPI
LCK, sequence (P06239 whole entry): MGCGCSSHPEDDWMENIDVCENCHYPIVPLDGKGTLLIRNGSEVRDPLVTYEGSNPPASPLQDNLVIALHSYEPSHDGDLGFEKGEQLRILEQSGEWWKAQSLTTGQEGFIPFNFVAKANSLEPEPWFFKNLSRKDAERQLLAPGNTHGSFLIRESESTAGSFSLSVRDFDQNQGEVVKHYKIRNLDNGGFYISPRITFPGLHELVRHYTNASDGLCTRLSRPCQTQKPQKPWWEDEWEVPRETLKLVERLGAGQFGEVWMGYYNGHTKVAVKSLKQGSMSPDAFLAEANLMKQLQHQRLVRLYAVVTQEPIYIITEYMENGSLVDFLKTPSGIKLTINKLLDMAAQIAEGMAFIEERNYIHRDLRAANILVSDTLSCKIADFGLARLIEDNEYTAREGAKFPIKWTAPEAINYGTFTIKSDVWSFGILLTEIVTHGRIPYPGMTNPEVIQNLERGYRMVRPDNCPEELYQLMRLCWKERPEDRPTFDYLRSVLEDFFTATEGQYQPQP

The EC50 is the midpoint of the concentration-response curve. For `Nc1nc2c(ncn2COCCO)c(=O)[nH]1` [Acyclovir, reference compound], the CC50 in [1] was > 10 µM. For the same compound, the EC50 in [2] amounted to 0.655 µM.

The IC50 is the point on the concentration scale where inhibition reaches its midpoint. As to `CCOC(=O)C1=C[C@@H](OC(CC)CC)[C@H](NC(C)=O)[C@@H](N)C1` [Oseltamivir], the EC50 was found to be 1.34 ± 1.92 µM in data set [3]; 4.89 ± 7.37 µM in data set [4]; 2.43 ± 1.24 µM in [5]; 2.94 ± 3.62 µM in [8]; 10.1 ± 9.82 µM in data set [9]; 5.62 ± 2.78 µM in data set [11]. For the same compound, the “body weight of mice” value in [6] is “did not significantly reduce the body weight”. Moreover, the “survival rate vs vehicle” value in [6] is on record as “could improve the survival rate”. In data set [6], the “time of death relative to vehicle group” value is reported as “died after 7 h—earlier than in the vehicle group”. For the same compound, the IC50 in [7] stood at 1650 µM; in data set [16] it was 1690 µM; in data set [17], 175 µM. Besides, the “viral load in nasal lavage fluid vs vehicle” value in data set [10] is “decreased significantly”. Also, the CC50 in data set [12] and in data set [13] was > 100 µM each time. Besides, in [14], the mortality rate was 90%. In data set [15], the “animals died (of n = 8)” value is given as “five”. Further, the “day on which body weight of surviving mice began to recover” value in data set [15] was 9 days. Besides, the “day on which weight of surviving mice increased gradually” value in data set [15] is 9th. The “mice died (of n = 8)” value in data set [15] was “three”.

With `C=C1[C@H](CO)[C@@H](O)C[C@@H]1n1cnc2c(=O)[nH]c(N)nc21` [Entecavir, reference compound], in data set [18], the CC50 is > 0.02 µM. The EC50 in [19] turned out to be 0.000338 µM.

As for `Cc1cc(CCCOc2c(C)cc(-c3noc(C(F)(F)F)n3)cc2C)on1` [Pleconaril, reference compound], the EC50 in data set [20] came to 0.028 µM. Moreover, the CC50 in data set [21] was > 5 µM.

`CCOC(=O)/C=C/[C@H](C[C@@H]1CCNC1=O)NC(=O)[C@@H](CC(=O)[C@@H](NC(=O)c1cc(C)on1)C(C)C)Cc1ccc(F)cc1` [AG7088, reference compound]: the EC50 in data set [22] amounted to 0.012 µM. In data set [23], the CC50 was > 1 µM.

As to `O=C(O)[C@H]1C2CCC(CC2)[C@@H]1Nc1nc(-c2c[nH]c3ncc(F)cc23)ncc1F` [VX-787, reference compound], the IC50 in [24] is > 10 µM; in data set [25], 1.78 µM; in [7] it was 9.18e-05 ± 1.45e-05 µM; in data set [27] it was > 10 µM; in data set [29] it was > 3.33 µM; in data set [30], > 10 µM. The IC50 is > 10 µM in [31]; > 3.33 µM in [32]; > 10 µM in data set [33]; > 10 µM in data set [34]; > 10 µM in [35]; > 10 µM in data set [37]. The IC50 in data set [38] was > 10 µM; in [39], > 10 µM; in data set [41], > 10 µM; in data set [42] it was > 10 µM; in data set [43] it was > 10 µM; in data set [16], 0.00192 ± 0.000492 µM. Also, the IC50 in data set [17] is 0.000834 ± 0.000204 µM; in data set [44], > 10 µM; in [45], > 10 µM; in data set [46], 1.11 µM; in data set [47], > 10 µM; in data set [48] (read-out: IC50, Mean ± SEM), 0.00145 ± 0.00034 µM. The IC50 in data set [48] (read-out: IC50, experiment 1) is 0.00128 µM; in data set [48] (read-out: IC50, experiment 2) it was 0.00123 µM; in data set [48] (read-out: IC50, experiment 3), 0.00184 µM; in [49], > 10 µM; in [50] it was > 10 µM; in data set [51], > 10 µM. Besides, in data set [52], the concentration for half-maximal inhibition (IC50) is > 3.33 µM. For the same compound, the EC50 in [3] is 0.000295 ± 0.000111 µM; in data set [4], 0.00076 ± 0.000355 µM; in data set [5], 0.000206 ± 6.1e-05 µM; in data set [8] it was > 0.01 µM; in data set [9], 0.000315 ± 7e-05 µM; in data set [11] it was 0.000255 ± 5.5e-05 µM. The EC50 in [36] stood at 0.00015 ± 2e-05 µM; in [40] it was 0.00024 ± 0.00014 µM; in data set [53], 0.000162 ± 3.4e-05 µM. Besides, the CC50 in data set [26] was 21.1 ± 9.76 µM. Also, in data set [6], the “body weight of mice” value is recorded as “did not significantly reduce the body weight”. In addition, the “survival rate vs vehicle” value in data set [6] is “could improve the survival rate”. In data set [6], the “time of death relative to vehicle group” value is given as “died after 7 h—earlier than in the vehicle group”. In addition, in data set [28], the “day on which mice began to regain body weight” value was 4 days. Also, the “viral load in nasal lavage fluid vs vehicle” value in [10] is listed as “decreased but showed no statistical significance”. In data set [14], the mortality rate is given as 70%. Further, the “animals died (of n = 8)” value in data set [15] is recorded as “four”. In data set [15], the “day on which body weight of surviving mice began to recover” value amounted to 8 days. For the same compound, the “day on which weight of surviving mice increased gradually” value in [15] was determined as 8th. The “mice died (of n = 8)” value in data set [15] is on record as “no mice died”. The survival rate in data set [15] is 100%.

These data come from PMC10056986 (Pharmaceuticals, 2023).
